Test results from patent US20240376094A2, “SELECTIVE BCL-XL PROTAC COMPOUNDS AND METHODS OF USE” (Les Laboratoires Servier, priority 2021, published 2024).

How the values were obtained:
Type in all cases: cell-based
[1] = biological target: T1, Bcl-xL (Homo sapiens, UniProt Q07817); assay: HCT116 Bcl-xL degradation, capillary-based immunoassay (WES); conditions: for DC50: HCT116, 24 h, 9-point serial dilution; for remaining activity at 0.01 µM / remaining activity at 0.1 µM: HCT-116, 24 h, % of untreated cells; for remaining activity at 0.01 µM: HCT116, 10 nM; for remaining activity at 0.1 µM: HCT116, 100 nM
T1 construct: Measured levels of Bcl-xL protein of HCT116 cells treated with the tested compounds; host or cells: HCT116
T1 sequence (Q07817 whole entry): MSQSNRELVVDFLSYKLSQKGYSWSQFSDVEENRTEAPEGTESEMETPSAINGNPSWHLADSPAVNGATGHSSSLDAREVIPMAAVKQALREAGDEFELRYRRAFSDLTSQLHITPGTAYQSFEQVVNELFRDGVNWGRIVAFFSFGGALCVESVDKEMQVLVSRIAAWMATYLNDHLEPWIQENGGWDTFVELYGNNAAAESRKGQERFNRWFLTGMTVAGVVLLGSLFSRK
In short: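 Bcl-xL protein level by capillary WES immunoassay in HCT116 lysates, as % of untreated after cofilin normalization. Compound exposure was 24 h at 10 and 100 nM and/or a 9-point series, in quadruplicate. Four-parameter fitting gave the DC50.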

[2] = test system: EBC-1 lung cancer cell line; assay: EBC-1 cell proliferation, CellTiter-Glo assay; conditions: Homo sapiens, 120 h; Ebc-1 cell viability, CTG assay, 5 days of treatment; read-out: CTG 5 day Ebc1 GI50
In short: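 CellTiter-Glo read-out after 5-day compound treatment, normalised to untreated cells, with GI50 derived by four-parameter logistic regression. Ten concentrations spanning 0.508 nM–10 μM were added to 1000 EBC-1 cells per well the day after seeding. Assays required at least one cell doubling versus Day 0.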

[3] = biological target: T2, HiBiT-tagged BCL-xL (Homo sapiens, UniProt Q07817); assay: NCI-H1650 BCL-xL protein levels, Nano-Glo HiBiT Lytic Detection; conditions: NCI-H1650 expressing HiBiT-tagged BCL-xL, overnight incubation, read-out: Bcl-xl HIBIT NCIH1650 DC50
T2 construct: expressed in transfected cells; host or cells: NCI-H1650 (ATCC No. CRL-5883), engineered HiBiT cell line
T2 sequence (Q07817 whole entry): as above
In short: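 HiBiT luminescence after cell lysis with LgBiT/furimazine reagent reported BCL-xL levels, expressed relative to untreated wells and fitted with a four-parameter logistic equation. Engineered NCI-H1650 cells were exposed overnight at 37° C to compound at final 0.508 nM-10 μM (10 points, triplicate plates).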

SMILES	DC50 [1] [nM]	remaining activity at 0.01 µM [1] [%]	remaining activity at 0.1 µM [1] [%]	GI50 [2] [nM]	DC50 [3] [nM]
Cc1ncsc1-c1ccc(CNC(=O)[C@@H]2CC(O)CN2C(=O)C(NC(=O)CCCCCCC(=O)N2CCN(CCOC34CC5(C)CC(C)(CC(Cn6ncc(-c7ccc(N8CCCc9c8nnc(Nc8nc%10ccccc%10s8)c9C)nc7C(=O)O)c6C)(C5)C3)C4)CC2)C(C)(C)C)cc1 (stereo in doubt) [Example 24, 6-[3-(1,3-benzothiazol-2-ylamino)-4-methyl-6,7-dihydro-5H-pyrido[2,3-c]pyridazin-8-yl]-3-[1-[[3-[2-[4-[8-[[(1S)-1-[(2S,4R)-4-hydroxy-2-[[4-(4-methylthiazol-5-yl)phenyl]methylcarbamoyl]pyrrolidine-1-carbonyl]-2,2-dimethyl-propyl]amino]-8-oxo-octanoyl]piperazin-1-yl]ethoxy]-5,7-dimethyl-1-adamantyl]methyl]-5-methyl-pyrazol-4-yl]pyridine-2-carboxylic acid]	> 316	75	44		
Cc1ncsc1-c1ccc(CNC(=O)[C@@H]2C[C@@H](O)CN2C(=O)[C@@H](NC(=O)CCCCCCC(=O)N2CCN(CC#Cc3ccc(OCCCc4sc(N5CCCc6c5nnc(Nc5nc7ccccc7s5)c6C)nc4C(=O)O)c(F)c3)CC2)C(C)(C)C)cc1 [Example 33, 2-(3-(benzo[d]thiazol-2-ylamino)-4-methyl-6,7-dihydropyrido [2,3-c]pyridazin-8(5H)-yl)-5-(3-(2-fluoro-4-(3-(4-(8-(((S)-1-((2S,4R)-4-hydroxy-2-((4-(4-methylthiazol-5-yl)benzyl)carbamoyl)pyrrolidin-1-yl)-3,3-dimethyl-1-oxobutan-2-yl)amino)-8-oxooctanoyl)piperazin-1-yl)prop-1-yn-1-yl)phenoxy)propyl) thiazole-4-carboxylic acid]				33	> 1670
Cc1ncsc1-c1ccc([C@H](C)NC(=O)[C@@H]2C[C@@H](O)CN2C(=O)[C@@H](NC(=O)CC23CC4CC(C2)CC(CC(=O)N2CCN(CC#Cc5ccc(OCCCc6sc(N7CCCc8c7nnc(Nc7nc9ccccc9s7)c8C)nc6C(=O)O)c(F)c5)CC2)(C4)C3)C(C)(C)C)cc1 [Example 42, 2-(3-(benzo[d]thiazol-2-ylamino)-4-methyl-6,7-dihydropyrido [2,3-c]pyridazin-8(5H)-yl)-5-(3-(2-fluoro-4-(3-(4-(2-((3S,5R)-3-(2-(((S)-1-((2S,4R)-4-hydroxy-2-(((S)-1-(4-(4-methylthiazol-5-yl)phenyl)ethyl)carbamoyl)pyrrolidin-1-yl)-3,3-dimethyl-1-oxobutan-2-yl)amino)-2-oxoethyl)adamantan-1-yl)acetyl)piperazin-1-yl)prop-1-yn-1-yl)phenoxy)propyl)thiazole-4-carboxylic acid]				21	> 1670
Cc1ncsc1-c1ccc([C@H](C)NC(=O)[C@@H]2C[C@@H](O)CN2C(=O)[C@@H](NC(=O)CCCCCCCCCCC(=O)N2CCN(CCOC34CC5(C)CC(C)(CC(Cn6ncc(-c7ccc(N8CCCc9c8nnc(Nc8nc%10ccccc%10s8)c9C)nc7C(=O)O)c6C)(C5)C3)C4)CC2)C(C)(C)C)cc1 [Example 47, 6-(3-(benzo[d]thiazol-2-ylamino)-4-methyl-6,7-dihydropyrido [2,3-c]pyridazin-8(5H)-yl)-3-(1-(((1r,3s,5R,7S)-3-(2-(4-(12-(((S)-1-((2S,4R)-4-hydroxy-2-(((S)-1-(4-(4-methylthiazol-5-yl)phenyl)ethyl)carbamoyl)pyrrolidin-1-yl)-3,3-dimethyl-1-oxobutan-2-yl)amino)-12-oxododecanoyl)piperazin-1-yl)ethoxy)-5,7-dimethyladamantan-1-yl)methyl)-5-methyl-1H-pyrazol-4-yl)picolinic acid]				76	9

Further molecules by falling GI50 [2], results first:

DC50 [1] [nM]	remaining activity at 0.01 µM [1] [%]	remaining activity at 0.1 µM [1] [%]	GI50 [2] [nM]	DC50 [3] [nM]	SMILES
0.462	39	23	21	> 1670	Cc1ncsc1-c1ccc(CNC(=O)C2C[C@@H](O)CN2C(=O)C(NC(=O)CCCCCC(=O)N2CCN(CC#Cc3ccc(OCCCc4sc(N5CCCc6c5nnc(Nc5nc7ccccc7s5)c6C)nc4C(=O)O)c(F)c3)CC2)C(C)(C)C)cc1 (stereo in doubt) [Example 15, 2-[3-(1,3-benzothiazol-2-ylamino)-4-methyl-6,7-dihydro-5H-pyrido[2,3-c]pyridazin-8-yl]-5-[3-[2-fluoro-4-[3-[4-[7-[[(1S)-1-[(2S,4R)-4-hydroxy-2-[[4-(4-methylthiazol-5-yl)phenyl]methylcarbamoyl]pyrrolidine-1-carbonyl]-2,2-dimethyl-propyl]amino]-7-oxo-heptanoyl]piperazin-1-yl]prop-1-ynyl]phenoxy]propyl] thiazole-4-carboxylic acid]
			19	> 1670	Cc1ncsc1-c1ccc([C@H](C)NC(=O)[C@@H]2C[C@@H](O)CN2C(=O)[C@@H](NC(=O)CCCC(=O)N2CCN(CC#Cc3ccc(OCCCc4sc(N5CCCc6c5nnc(Nc5nc7ccccc7s5)c6C)nc4C(=O)O)c(F)c3)CC2)C(C)(C)C)cc1 [Example 35, 2-(3-(benzo[d]thiazol-2-ylamino)-4-methyl-6,7-dihydropyrido [2,3-c]pyridazin-8(5H)-yl)-5-(3-(2-fluoro-4-(3-(4-(5-(((S)-1-((2S,4R)-4-hydroxy-2-(((S)-1-(4-(4-methylthiazol-5-yl)phenyl)ethyl)carbamoyl)pyrrolidin-1-yl)-3,3-dimethyl-1-oxobutan-2-yl)amino)-5-oxopentanoyl)piperazin-1-yl)prop-1-yn-1-yl)phenoxy)propyl)thiazole-4-carboxylic acid]
			12	1	Cc1ncsc1-c1ccc(CNC(=O)[C@@H]2C[C@@H](O)CN2C(=O)[C@@H](NC(=O)CCCCCCCCCCC(=O)N2CCN(CC#Cc3ccc(OCCCc4sc(N5CCCc6c5nnc(Nc5nc7ccccc7s5)c6C)nc4C(=O)O)c(F)c3)CC2)C(C)(C)C)cc1 [Example 48, 2-(3-(benzo[d]thiazol-2-ylamino)-4-methyl-6,7-dihydropyrido [2,3-c]pyridazin-8(5H)-yl)-5-(3-(2-fluoro-4-(3-(4-(12-(((S)-1-((2S,4R)-4-hydroxy-2-((4-(4-methylthiazol-5-yl)benzyl)carbamoyl)pyrrolidin-1-yl)-3,3-dimethyl-1-oxobutan-2-yl)amino)-12-oxododecanoyl)piperazin-1-yl)prop-1-yn-1-yl)phenoxy)propyl)thiazole-4-carboxylic acid]
			7	2	Cc1ncsc1-c1ccc([C@H](C)NC(=O)[C@@H]2C[C@@H](O)CN2C(=O)[C@@H](NC(=O)CCCCCCCCCCC(=O)N2CCN(CC#Cc3ccc(OCCCc4sc(N5CCCc6c5nnc(Nc5nc7ccccc7s5)c6C)nc4C(=O)O)c(F)c3)CC2)C(C)(C)C)cc1 [Example 46, 2-(3-(benzo[d]thiazol-2-ylamino)-4-methyl-6,7-dihydropyrido [2,3-c]pyridazin-8(5H)-yl)-5-(3-(2-fluoro-4-(3-(4-(12-(((S)-1-((2S,4R)-4-hydroxy-2-(((S)-1-(4-(4-methylthiazol-5-yl)phenyl)ethyl)carbamoyl)pyrrolidin-1-yl)-3,3-dimethyl-1-oxobutan-2-yl)amino)-12-oxododecanoyl)piperazin-1-yl)prop-1-yn-1-yl)phenoxy)propyl)thiazole-4-carboxylic acid]
1.22	11	6	1	0.4	Cc1ncsc1-c1ccc([C@H](C)NC(=O)C2CC(O)CN2C(=O)C(NC(=O)CCCCCCCCCCCN2CCN(CC#Cc3ccc(OCCCc4sc(N5CCCc6c5nnc(Nc5nc7ccccc7s5)c6C)nc4C(=O)O)c(F)c3)CC2)C(C)(C)C)cc1 (stereo in doubt) [Example 31, 2-[3-(1,3-benzothiazol-2-ylamino)-4-methyl-6,7-dihydro-5H-pyrido[2,3-c]pyridazin-8-yl]-5-[3-[2-fluoro-4-[3-[4-[12-[[(1S)-1-[(2S,4R)-4-hydroxy-2-[[(1S)-1-[4-(4-methylthiazol-5-yl)phenyl]ethyl]carbamoyl]pyrrolidine-1-carbonyl]-2,2-dimethyl-propyl]amino]-12-oxo-dodecyl]piperazin-1-yl]prop-1-ynyl]phenoxy]propyl] thiazole-4-carboxylic acid]
			1	0.3	Cc1ncsc1-c1ccc([C@H](C)NC(=O)[C@@H]2C[C@@H](O)CN2C(=O)[C@@H](NC(=O)CCCCCCCCCCCN2CCN(CC#Cc3ccc(OCCCc4sc(N5CCCc6c5nnc(Nc5nc7ccccc7s5)c6C)nc4C(=O)O)c(F)c3)CC2)C(C)(C)C)cc1 [Example 51, 2-(3-(benzo[d]thiazol-2-ylamino)-4-methyl-6,7-dihydropyrido [2,3-c]pyridazin-8(5H)-yl)-5-(3-(2-fluoro-4-(3-(4-(12-(((S)-1-((2S,4R)-4-hydroxy-2-(((S)-1-(4-(4-methylthiazol-5-yl)phenyl)ethyl)carbamoyl)pyrrolidin-1-yl)-3,3-dimethyl-1-oxobutan-2-yl)amino)-12-oxododecyl)piperazin-1-yl)prop-1-yn-1-yl)phenoxy)propyl)thiazole-4-carboxylic acid]
